# Patent publication US20050085463A1 (priority 2003, published 2005)
# Several values for one entry are separate records, joined by “and”; a condition that tells them apart may be missing. Equal entries are not always repeated.
# Columns and labels:
# D2 dopamine receptor = D2 dopamine receptor (Homo sapiens, UniProt P14416); test: R-SAT competitive antagonist assay
# α2 receptors = test: Ligand binding screen at 10 μM
# 5-HT7A receptor = 5-HT7A receptor (Homo sapiens, UniProt P34969); test: R-SAT inverse agonist assay
# Sequence of 5-HT7A receptor (P34969 1-445 isoform P34969-2): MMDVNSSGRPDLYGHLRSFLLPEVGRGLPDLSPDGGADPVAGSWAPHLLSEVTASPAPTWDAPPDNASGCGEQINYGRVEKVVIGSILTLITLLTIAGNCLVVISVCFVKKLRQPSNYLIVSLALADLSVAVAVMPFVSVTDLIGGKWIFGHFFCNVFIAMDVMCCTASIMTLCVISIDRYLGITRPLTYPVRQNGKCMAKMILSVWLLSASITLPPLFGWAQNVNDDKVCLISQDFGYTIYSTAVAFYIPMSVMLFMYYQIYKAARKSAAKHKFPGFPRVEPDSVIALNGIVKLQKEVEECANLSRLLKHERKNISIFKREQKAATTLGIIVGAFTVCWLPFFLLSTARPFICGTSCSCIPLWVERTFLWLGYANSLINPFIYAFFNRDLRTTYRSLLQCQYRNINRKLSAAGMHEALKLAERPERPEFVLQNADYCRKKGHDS
# M3 muscarinic receptor = M3 muscarinic receptor (Homo sapiens, UniProt P20309); test: R-SAT competitive antagonist assay; format: cell-based; conditions: nr = no significant antagonist or inverse agonist activity up to 1 μM, nr* = nr but significant agonist activity, read-out: pKi M3, competitive antagonist (converted)
# Sequence of M3 muscarinic receptor (P20309 whole entry): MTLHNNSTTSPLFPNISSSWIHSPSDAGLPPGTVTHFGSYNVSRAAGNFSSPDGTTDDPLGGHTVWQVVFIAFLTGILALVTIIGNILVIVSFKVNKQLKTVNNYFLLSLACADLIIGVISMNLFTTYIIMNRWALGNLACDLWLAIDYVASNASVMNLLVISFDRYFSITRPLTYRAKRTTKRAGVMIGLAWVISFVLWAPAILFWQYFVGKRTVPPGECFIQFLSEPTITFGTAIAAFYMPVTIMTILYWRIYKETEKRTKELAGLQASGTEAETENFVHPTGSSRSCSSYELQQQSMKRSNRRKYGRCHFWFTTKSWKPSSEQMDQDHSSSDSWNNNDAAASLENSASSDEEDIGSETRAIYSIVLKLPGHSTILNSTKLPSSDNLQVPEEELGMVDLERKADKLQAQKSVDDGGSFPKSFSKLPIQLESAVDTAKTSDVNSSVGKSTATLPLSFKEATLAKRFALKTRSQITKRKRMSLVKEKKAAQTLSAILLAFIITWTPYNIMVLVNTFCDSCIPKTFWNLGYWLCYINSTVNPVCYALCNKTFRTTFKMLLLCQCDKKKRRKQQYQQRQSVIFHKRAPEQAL
# M1 muscarinic receptor = target: T1, M1 muscarinic receptor (Homo sapiens, UniProt P11229); test: cell-based
# T1 sequence (P11229 1-460): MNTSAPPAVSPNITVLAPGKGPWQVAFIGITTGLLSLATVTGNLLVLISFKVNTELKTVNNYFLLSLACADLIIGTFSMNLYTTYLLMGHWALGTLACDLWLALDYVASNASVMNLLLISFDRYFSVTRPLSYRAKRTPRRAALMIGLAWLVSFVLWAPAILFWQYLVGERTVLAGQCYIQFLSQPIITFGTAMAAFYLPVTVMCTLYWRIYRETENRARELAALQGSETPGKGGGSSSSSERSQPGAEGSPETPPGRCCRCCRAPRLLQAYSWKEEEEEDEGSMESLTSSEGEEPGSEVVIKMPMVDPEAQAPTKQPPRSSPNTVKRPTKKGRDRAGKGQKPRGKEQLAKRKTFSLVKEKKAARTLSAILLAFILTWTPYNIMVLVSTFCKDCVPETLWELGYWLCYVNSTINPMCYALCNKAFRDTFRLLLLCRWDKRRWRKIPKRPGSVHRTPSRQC
# M5 muscarinic receptor = target: T2, M5 muscarinic receptor (Homo sapiens, UniProt P08912); test: R-SAT agonist assay; format: cell-based; set-up: expressed in transfected cells; host or cells: NIH/3T3
# T2 sequence (P08912 1-532): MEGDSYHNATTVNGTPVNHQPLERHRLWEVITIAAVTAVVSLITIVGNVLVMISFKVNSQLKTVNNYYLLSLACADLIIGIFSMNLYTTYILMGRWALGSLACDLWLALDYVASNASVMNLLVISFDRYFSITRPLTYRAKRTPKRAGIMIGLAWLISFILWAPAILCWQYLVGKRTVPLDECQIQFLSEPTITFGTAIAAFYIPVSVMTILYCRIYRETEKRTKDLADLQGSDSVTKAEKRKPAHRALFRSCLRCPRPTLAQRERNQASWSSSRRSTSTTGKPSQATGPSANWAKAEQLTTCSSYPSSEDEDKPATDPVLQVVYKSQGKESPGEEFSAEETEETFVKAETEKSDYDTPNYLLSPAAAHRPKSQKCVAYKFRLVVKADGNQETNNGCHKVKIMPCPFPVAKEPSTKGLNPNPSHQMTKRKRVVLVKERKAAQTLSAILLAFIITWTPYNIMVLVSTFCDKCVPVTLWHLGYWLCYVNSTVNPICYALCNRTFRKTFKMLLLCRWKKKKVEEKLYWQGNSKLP
# [1] = Brain-to-plasma ratio in rats; format: in vivo; conditions: male, Sprague-Dawley, rat, po, 10 mg/kg, brain-to-plasma ratio of NDMC
# Procedure: The pharmacokinetics of clozapine and N-desmethylclozapine (NDMC) was evaluated in rats after intravenous (i.v.) and oral (p.o.) dosing. Cmax, Tmax and bioavailability after p.o. dosing and the volume of distribution (Vss), terminal plasma half-life (T1/2) and clearance (CLs) after i.v. dosing were determined. […] Animals were euthanised and brain and plasma samples obtained at 60 or 240 minutes post-dose, depending on study group. The levels of NDMC and clozapine were measured in each sample.
# The pharmacokinetic study described above included an initial assessment of the distribution of NDMC into brain.
# M2 muscarinic receptor = target: T3, M2 muscarinic receptor (Homo sapiens, UniProt P08172); test: R-SAT competitive antagonist assay; format: cell-based; set-up: expressed in transfected cells; host or cells: NIH/3T3; conditions: nr = no significant antagonist or inverse agonist activity up to 1 μM, nr* = nr but significant agonist activity
# T3 sequence (P08172 1-466): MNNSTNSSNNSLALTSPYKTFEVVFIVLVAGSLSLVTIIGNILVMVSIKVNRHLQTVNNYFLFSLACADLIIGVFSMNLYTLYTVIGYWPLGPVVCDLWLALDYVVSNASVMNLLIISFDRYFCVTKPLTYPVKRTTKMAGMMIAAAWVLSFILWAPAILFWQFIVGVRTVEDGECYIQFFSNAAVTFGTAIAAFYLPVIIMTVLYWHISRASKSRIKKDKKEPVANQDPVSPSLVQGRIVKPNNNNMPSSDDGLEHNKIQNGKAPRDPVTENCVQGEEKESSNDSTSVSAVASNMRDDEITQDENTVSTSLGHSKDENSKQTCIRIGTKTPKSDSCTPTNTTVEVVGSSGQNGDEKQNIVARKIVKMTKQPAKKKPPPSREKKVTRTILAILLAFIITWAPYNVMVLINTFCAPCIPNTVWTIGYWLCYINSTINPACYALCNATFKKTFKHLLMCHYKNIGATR
# Sequence of D2 dopamine receptor (P14416 whole entry): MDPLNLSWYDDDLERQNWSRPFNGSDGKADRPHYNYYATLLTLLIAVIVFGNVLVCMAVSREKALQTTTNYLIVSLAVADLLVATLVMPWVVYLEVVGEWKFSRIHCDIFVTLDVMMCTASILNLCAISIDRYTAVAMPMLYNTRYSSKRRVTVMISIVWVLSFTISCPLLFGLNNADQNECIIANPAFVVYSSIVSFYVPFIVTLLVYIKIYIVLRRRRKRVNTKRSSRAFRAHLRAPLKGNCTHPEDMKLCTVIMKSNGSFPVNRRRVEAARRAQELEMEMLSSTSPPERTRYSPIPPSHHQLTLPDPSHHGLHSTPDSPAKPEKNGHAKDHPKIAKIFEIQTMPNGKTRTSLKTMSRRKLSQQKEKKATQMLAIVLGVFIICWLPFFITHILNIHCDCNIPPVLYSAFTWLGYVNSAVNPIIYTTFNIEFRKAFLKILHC
structure (smiles),measurement,setting,value
"Clc1ccc2c(c1)N=C(N1CCNCC1)c1ccccc1N2 [NDMC, 8-chloro-11-(1-piperazinyl)-5H-dibenzo [b,e][1,4] diazepine]",Ki,D2 dopamine receptor,0.0631 µM
same,"pKi D2, competitive antagonist","D2 dopamine receptor; R-SAT, nr = no significant antagonist or inverse agonist activity up to 1 μM, nr* = nr but significant agonist activity",7.2 ± 0.1
same,"inhibition of binding, α2",α2 receptors,≥ 90%
same,EC50,5-HT7A receptor,0.0501 µM
same,"pEC50 5HT7A, inverse agonist","5-HT7A receptor; R-SAT, nr = no significant antagonist or inverse agonist activity up to 1 μM",7.3 ± 0.1
same,Ki,M3 muscarinic receptor,0.158 µM
same,Emax,"M1 muscarinic receptor; CHO, read-out: M1 % Efficacy, PI hydrolysis, relative to carbachol",56%
same,EC50,"M1 muscarinic receptor; M1 pEC50, PI hydrolysis, agonist",0.2 µM
same,EC50,"M1 muscarinic receptor; potency, M1 agonist, PI hydrolysis, n=3",0.093 µM
same,EC50,"M5 muscarinic receptor; R-SAT agonist, read-out: M5 pEC50 (converted)",0.0234 µM and 0.0251 µM
same,M5 Efficacy,"M5 muscarinic receptor; R-SAT, relative to carbachol, No response/nr = no agonist activity up to 10 μM",48 ± 6%
same,Ki,"M5 muscarinic receptor; functional pharmacological screen, read-out: Ki, partial agonist of M5",0.025 µM
same,Kp at 1 h,[1]; 60 minutes after oral 10 mg/kg NDMC,0.36 ± 0.16
same,Kp at 1 h,[1]; 60 minutes after oral clozapine,0.26 ± 0.07
same,Kp at 4 h,[1]; 240 minutes after oral 10 mg/kg NDMC,1 ± 0.4
same,Kp at 4 h,[1]; 240 minutes after oral clozapine,2.6 ± 0.8
same,"pKi M2, competitive antagonist",M2 muscarinic receptor,nr*
